Reference: publication PMC2263054, “Functional evolution of the vitamin D and pregnane X receptors” (BMC Evolutionary Biology, 2007)
Entries after “also recorded” stand apart in the source; their conditions may differ. Structures can show the parent of a compound that is named as a salt.

What was measured:
Xenopus laevis VDR = molecular target: T1, Xenopus laevis VDR (Xenopus laevis, UniProt O13124); test: luciferase reporter transactivation assay in HepG2-NTCP cells, GAL4/xlVDR LBD chimera with tk-UAS-Luc; format: cell-based; conditions: screening for activators, at least three concentrations of each drug
T1 sequence (O13124 90-422): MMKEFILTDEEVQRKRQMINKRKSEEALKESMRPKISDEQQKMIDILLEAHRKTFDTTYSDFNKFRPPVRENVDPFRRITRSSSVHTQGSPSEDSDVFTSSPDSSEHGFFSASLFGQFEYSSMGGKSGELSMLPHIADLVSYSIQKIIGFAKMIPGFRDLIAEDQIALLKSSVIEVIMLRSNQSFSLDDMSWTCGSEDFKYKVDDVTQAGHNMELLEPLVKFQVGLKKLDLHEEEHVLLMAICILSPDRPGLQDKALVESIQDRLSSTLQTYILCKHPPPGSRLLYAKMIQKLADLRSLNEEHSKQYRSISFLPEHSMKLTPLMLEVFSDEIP

Zebrafish VDR = molecular target: T2, Zebrafish VDR (Danio rerio, UniProt Q9PTN2); test: luciferase reporter transactivation assay in HepG2-NTCP cells, GAL4/zfVDR LBD chimera with tk-UAS-Luc; format: cell-based; conditions: screening for activators, at least three concentrations of each drug
T2 sequence (Q9PTN2 121-453): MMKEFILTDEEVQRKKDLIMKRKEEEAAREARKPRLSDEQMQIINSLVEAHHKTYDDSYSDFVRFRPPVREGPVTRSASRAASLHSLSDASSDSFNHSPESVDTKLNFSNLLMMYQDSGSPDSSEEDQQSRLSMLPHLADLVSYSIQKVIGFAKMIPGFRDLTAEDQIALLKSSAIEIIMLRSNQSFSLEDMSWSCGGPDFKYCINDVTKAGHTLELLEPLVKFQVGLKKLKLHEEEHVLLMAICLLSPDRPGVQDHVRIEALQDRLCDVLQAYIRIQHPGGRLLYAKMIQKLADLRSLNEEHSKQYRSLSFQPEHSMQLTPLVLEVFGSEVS

Sea lamprey VDR = molecular target: T3, Sea lamprey VDR (Petromyzon marinus, UniProt Q7ZZY9); format: cell-based; conditions: screening for activators, at least three concentrations of each drug
T3 sequence (Q7ZZY9 92-406): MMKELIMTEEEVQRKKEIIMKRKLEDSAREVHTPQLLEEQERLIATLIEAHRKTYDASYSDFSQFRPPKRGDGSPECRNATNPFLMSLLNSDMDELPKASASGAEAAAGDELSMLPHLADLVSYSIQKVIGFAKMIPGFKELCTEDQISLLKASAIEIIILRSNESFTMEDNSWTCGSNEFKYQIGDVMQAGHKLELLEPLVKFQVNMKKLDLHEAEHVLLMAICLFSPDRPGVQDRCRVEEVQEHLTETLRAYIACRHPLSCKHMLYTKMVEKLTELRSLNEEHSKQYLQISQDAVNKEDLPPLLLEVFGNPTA

Row | Compound | Effect on Xenopus laevis VDR (Xenopus laevis VDR) | Effect on zebrafish VDR (Zebrafish VDR) | Effect on sea lamprey VDR (Sea lamprey VDR) | activation of ciVDR/PXR (Ciona VDR/PXR)
1 | CC1=C(/C=C/C(C)=C/C=C/C(C)=C/C(=O)Nc2ccc(O)cc2)C(C)(C)CCC1 [4-Hydroxyphenylretinamide] | No effect | No effect | No effect | 
2 | C/C(=C\c1ccc(C(=O)O)cc1)c1ccc2c(c1)C(C)(C)CCC2(C)C [TTNPB] | No effect | No effect | No effect | 
3 | CC(=O)[C@H]1CC[C@H]2[C@@H]3CCC4=CC(=O)CC[C@]4(C)[C@H]3CC[C@]12C [Progesterone] | No effect | No effect | No effect | 
4 | CCCCC[C@H](O)/C=C/C=C\CCCCCCCC(=O)O [13(S)-Hydroxy-9Z,11E-octadecadienoic acid] | No effect | No effect | No effect | 
5 | Cc1ccc(C)c(OCCCC(C)(C)C(=O)O)c1 [Gemfibrozil] | No effect | No effect | No effect | 
6 | CC(=O)[C@H]1CC[C@H]2[C@@H]3CC[C@H]4C[C@H](O)CC[C@]4(C)[C@H]3CC[C@]12C [5a-pregnan-3a-ol-20-one] | No effect | No effect | No effect | 
7 | CC(C)CCC[C@@H](C)[C@H]1CC[C@H]2[C@@H]3CC[C@@H]4C[C@H](OS(=O)(=O)O)CC[C@]4(C)[C@H]3CC[C@]12C [5b-cholestan-3a-ol sulfate] | No effect | No effect | No effect | 
8 | COc1cc(C)c(/C=C/C(C)=C/C=C/C(C)=C/C(=O)O)c(C)c1C [Aciretin] | No effect | No effect | No effect | 
9 | CC(=O)N[C@@H](CSC/C=C(\C)CC/C=C(\C)CC/C=C(\C)CCC=C(C)C)C(=O)O [Acetyl-geranylgeranyl-cysteine] | No effect | No effect | No effect | 
10 | CC1=C(/C=C/C(C)=C/C=C/C(C)=C/CO)C(C)(C)CCC1 [Retinol] | No effect | No effect | No effect | 
11 | CC(CCC(=O)NCC(=O)O)C1CCC2C3CCC4CC(O)CCC4(C)C3CC(O)C12C (centres unmarked) [Glycodeoxycholic acid] | No effect | No effect | No effect | 
12 | AM-580 | No effect | No effect | No effect | 
13 | CC(C)c1onc(-c2c(Cl)cccc2Cl)c1COc1ccc(/C=C/c2cccc(C(=O)O)c2)c(Cl)c1 [GW4064] | None of these three VDRs were activated | None of these three VDRs were activated | None of these three VDRs were activated | 
14 | O=C(Nc1ccccc1)c1cc([N+](=O)[O-])ccc1Cl [GW 9662] | No effect | No effect | No effect | 
15 | CC(=O)O[C@H]1C(=O)[C@@]2(C)[C@H]([C@H](OC(=O)c3ccccc3)[C@]3(O)C[C@H](OC(=O)[C@H](O)[C@@H](NC(=O)c4ccccc4)c4ccccc4)C(C)=C1C3(C)C)[C@]1(OC(C)=O)CO[C@@H]1C[C@@H]2O [Paclitaxel] | No effect | No effect | No effect | 
16 | CC1=C(/C=C/C(C)=C/C=C/C(C)=C\C(=O)O)C(C)(C)CCC1 [13-cis Retinoic acid] | No effect | No effect | No effect | 

Row | Compound | Effect on Xenopus laevis VDR (Xenopus laevis VDR) | Effect on zebrafish VDR (Zebrafish VDR) | Effect on sea lamprey VDR (Sea lamprey VDR) | activation of ciVDR/PXR (Ciona VDR/PXR)
17 | C[C@]12CC[C@@H]3c4ccc(OS(=O)(=O)O)cc4CC[C@H]3[C@@H]1CC[C@@H]2O [Estradiol 3-sulfate] | No effect | No effect | No effect | 
18 | C[C@]12CCC(=O)C[C@@H]1CC[C@@H]1[C@@H]2CC[C@]2(C)C=CC[C@@H]12 [16,(5a)-Androsten-3-one] | No effect | No effect | No effect | 
19 | CCCCOC(=O)c1ccc(N)cc1 [n-Butyl 4-aminobenzoate] | No effect | No effect | No effect | activated
20 | CC(=O)[C@H]1CC[C@H]2[C@@H]3CC[C@@H]4CC(=O)CC[C@]4(C)[C@H]3CC[C@]12C [5b-Pregnan-3,20-dione] | No effect | No effect | No effect | 
21 | C[C@@]12CCC[C@H]1[C@@H]1CC[C@H]3C[C@@H](O)CC[C@]3(C)[C@H]1CC2 [5a-Androstan-3b-ol] | No effect | No effect | No effect | 
22 | C[C@H](CCC(=O)O)[C@H]1CC[C@H]2[C@@H]3[C@@H](O)[C@@H](O)[C@@H]4C[C@H](O)CC[C@]4(C)[C@H]3CC[C@]12C [b-Muricholic acid] | No effect | No effect | No effect | 
23 | C[C@]12CC[C@H]3[C@@H](CCC4=CC(=O)CC[C@@]43C)[C@@H]1CC[C@@H]2C(=O)CO [Cortexone (4-Pregnen-21-ol-3,20-dione), 4-Pregnen-21-ol-3,20-dione] | No effect | No effect | No effect | 
24 | O=C(O)Cc1cccc(OCCCN(Cc2cccc(C(F)(F)F)c2Cl)CC(c2ccccc2)c2ccccc2)c1 [GW3965] | None of these three VDRs were activated; also recorded: No effect | None of these three VDRs were activated; also recorded: No effect | None of these three VDRs were activated; also recorded: No effect | 
25 | C[C@H](CC(=O)O)[C@H]1CC[C@H]2[C@@H]3CC[C@@H]4C[C@H](O)CC[C@]4(C)[C@H]3C[C@H](O)[C@]12C [23-Nordeoxycholic acid] | No effect | No effect | No effect | 
26 | NC(=O)N1c2ccccc2C=Cc2ccccc21 [carbamazepine] |  |  |  | activated
27 | C[C@]12CCC(=O)C[C@@H]1CC[C@@H]1[C@@H]2CC[C@]2(C)[C@@H](O)CC[C@@H]12 [Dihydrotestosterone] | No effect | No effect | No effect | 
28 | CC1=CC(=O)c2ccccc2C1=O [Vitamin K3] | No effect | No effect | No effect | 
29 | CCCOC(=O)c1ccc(O)cc1 [n-Propyl 4-hydroxybenzoate] | No effect | No effect | No effect | 
30 | 17-Hydroxyprogesterone | No effect | No effect | No effect | 
31 | CC(C)=CCC/C(C)=C/CC/C(C)=C/CO [Farnesol] | No effect | No effect | No effect | 
